In patent US10336749B2, “Method for the preparation of (4S)-4-(4-cyano-2-methoxyphenyl)-5-ethoxy-2,8-dimethyl-1,4-dihydro-1-6-naphthyridine-3-carboxamide and the purification thereof for use as an active pharmaceutical ingredient” (BAYER PHARMA AKTIENGESELLSCHAFT, priority 2015, dated 2019):

Key:
[1] = Stability and moisture absorption: storage at 85% and 97% rel. humidity, evaluated by DSC, TGA and XRPD; format: physicochemical; conditions: 25° C.; for mass change: after 12 months
Experimental: Stability and Moisture Absorption Samples of compound of the formula (I) in crystalline form of polymorph I were stored at 85% and 97% rel. humidity (25° C.). The samples were evaluated after 12 months by DSC, TGA and XRPD. After 12 months, a mass change of <0.1% is observed in both cases. […] According to DSC, TGA and XRPD, no difference exists in compound of the formula (I) in crystalline form of polymorph I.

[2] = Storage stability of crystalline polymorph I; format: physicochemical
[3] = 85% and 97% rel. humidity, 12 months

## CCOc1ncc(C)c2c1[C@H](c1ccc(C#N)cc1OC)C(C(N)=O)=C(C)N2 [(4S)-4-(4-Cyano-2-methoxyphenyl)-5-ethoxy-2,8-dimethyl-1,4-dihydro-1,6-naphthyridine-3-carboxamide]
[1]; [3]
  absorption of water: no significant absorption of water
  difference according to DSC, TGA and XRPD after storage: no difference
[1]; stored at 85% rel. humidity
  mass change: < 0.1%
[1]; stored at 97% rel. humidity
  mass change: < 0.1%
[2]; crystalline form of polymorph I
  storage time without any problem: > 2 years
[2]; even at high atmospheric humidity
  stability properties: very good stability properties
